In the supplement of paper PMC11451515:

What was measured:
Test in all cases: AUC of viability dose-response curve (% viability x log10 dose units); higher = less sensitive
Details in all cases: 48 h
P12-Ichikawa = test system: P12-Ichikawa
Outline: (§1)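 Leukemia cells adapted to each medium (500 or 1000 cells/well, 1536-well plates) were exposed to library compounds in DMSO for 48 h at 37°C at 11 threefold doses, 47 μM to 0.79 nM. Luminescence by CellTiter-Glo One was normalised per plate to DMSO and cell-free wells, then fitted with a four-parameter log-logistic curve on log10 dose. Curves above full viability were scaled and quality-control failures removed before area under the curve was integrated by trapezoidal rule.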

SEM cells = test system: SEM cells
Outline: as §1

NOMO1 = test system: NOMO1
Outline: as §1

[1] = RPMI 5 mM glucose + 10% dialyzed FBS

Row | SMILES | AUC of viability dose-response curve (P12-Ichikawa; HPLM + 10% dialyzed FBS) | AUC of viability dose-response curve (P12-Ichikawa; RPMI 5 mM glucose + 10% FBS) | AUC of viability dose-response curve (P12-Ichikawa; [1]) | AUC of viability dose-response curve (SEM cells; HPLM + 10% dialyzed FBS) | AUC of viability dose-response curve (SEM cells; RPMI 5 mM glucose + 10% FBS) | AUC of viability dose-response curve (SEM cells; [1]) | AUC of viability dose-response curve (NOMO1; HPLM + 10% dialyzed FBS) | AUC of viability dose-response curve (NOMO1; RPMI 5 mM glucose + 10% FBS) | AUC of viability dose-response curve (NOMO1; [1])
1 | CC1=C(/C=C/C(C)=C/C=C/C(C)=C/C(=O)Nc2ccc(O)cc2)C(C)(C)CCC1 | 326 | 311 | 276 | 301 | 322 | 274 | 347 | 348 | 341
2 | CC(Oc1ccc(O)cc1)(P(=O)(O)O)P(=O)(O)O | 434 | 401 | 418 | 427 | 420 | 421 | 415 | 399 | 405
3 | CCOc1cc2c(c(F)c1OCC)C(=N)N(CC(=O)c1cc(N3CCOCC3)c(OC)c(C(C)(C)C)c1)C2 | 465 | 472 | 475 | 465 | 464 | 453 | 464 | 435 | 453
4 | CC1(C)CC(=O)c2c(C(F)(F)F)nn(-c3ccc(C(N)=O)c(NC4CCC(OC(=O)CN)CC4)c3)c2C1 (stereo not given) | 346 | 297 | 308 | 288 | 290 | 276 | 292 | 273 | 281
5 | CCCCCCCCCCCCCCCC(=O)OC[C@@H](NC(=O)C(Cl)Cl)[C@H](O)c1ccc([N+](=O)[O-])cc1 | 470 | 429 | 461 | 464 | 468 | 455 | 450 | 461 | 445
6 | CN(C)C(=O)COC(=O)Cc1ccc(OC(=O)c2ccc(NC(=N)N)cc2)cc1 | 446 | 462 | 437 | 465 | 458 | 469 | 426 | 469 | 465
7 | Cn1cc(-c2ccc3ncc(Cc4ccc5ncccc5c4)n3n2)cn1 | 472 | 474 | 470 | 450 | 452 | 450 | 468 | 477 | 472
8 | N#Cc1c(C2CCNCC2)cc(-c2c(O)cccc2OCC2CC2)nc1N | 453 | 430 | 446 | 441 | 446 | 435 | 455 | 450 | 447
9 | CC1=CC2=C(O1)C(=C3OC(=O)\C=C(C)/C3=C2)C | 468 | 469 | 468 | 404 | 453 | 447 | 446 | 466 | 451
10 | COc1ccc(CCC(=O)Nc2nc3ccc(Cl)cc3s2)cc1OC | 466 | 472 | 462 | 463 | 461 | 472 | 454 | 458 | 455
11 | COc1ccc([C@@H]2CNC(=O)C2)cc1OC1CCCC1 | 466 | 456 | 458 | 454 | 458 | 459 | 452 | 467 | 468
12 | CCCn1c(=O)c2[nH]c(C34CC5CC3C[C@@H](C5)C4)nc2n(CCC)c1=O | 462 | 410 | 460 | 477 | 416 | 457 | 454 | 442 | 463
13 | COc1cc2c(NC3CCN(C(C)C)CC3)nc(C3CCCCC3)nc2cc1OCCCN1CCCC1 | 449 | 445 | 441 | 419 | 440 | 454 | 444 | 455 | 438
14 | Cn1c(=O)c2c(ncn2CC(O)CO)n(C)c1=O (stereo not given) | 435 | 449 | 460 | 440 | 469 | 421 | 470 | 462 | 455
15 | CC(C)(O)CNc1nc(Nc2ccnc(C(F)(F)F)c2)nc(-c2cccc(C(F)(F)F)n2)n1 | 371 | 369 | 381 | 408 | 363 | 382 | 442 | 409 | 418
16 | CCC(=O)O[C@@]1([C@H](C)C[C@H]2[C@@H]3C[C@H](F)\C4=C\C(=O)\C=C/[C@]4(C)[C@@]3(F)[C@@H](O)C[C@]12C)C(=O)SCF | 342 | 292 | 290 | 328 | 325 | 280 | 455 | 465 | 439
17 | CCc1cc(/C(C)=N/OCc2ccc(C3CCCCC3)c(C(F)(F)F)c2)ccc1CN1CC(C(=O)O)C1 | 418 | 414 | 414 | 455 | 452 | 463 | 385 | 418 | 420
18 | c1cc(-c2sc(-c3ccncc3)c(-c3ccncc3)c2-c2ccncc2)ccn1 | 472 | 466 | 471 | 377 | 350 | 365 | 472 | 439 | 464
19 | COc1ccc(-c2c(-c3ccc(O)cc3O)n[nH]c2C)cc1 | 465 | 464 | 468 | 428 | 405 | 431 | 449 | 467 | 466
20 | CNC(=O)c1cc(Oc2ccc(NC(=O)Nc3cc(C(C)(C)C)nn3-c3ccc4ncccc4c3)c(F)c2)ccn1 | 464 | 465 | 469 | 375 | 359 | 335 | 433 | 452 | 450

Row | SMILES | AUC of viability dose-response curve (P12-Ichikawa; HPLM + 10% dialyzed FBS) | AUC of viability dose-response curve (P12-Ichikawa; RPMI 5 mM glucose + 10% FBS) | AUC of viability dose-response curve (P12-Ichikawa; [1]) | AUC of viability dose-response curve (SEM cells; HPLM + 10% dialyzed FBS) | AUC of viability dose-response curve (SEM cells; RPMI 5 mM glucose + 10% FBS) | AUC of viability dose-response curve (SEM cells; [1]) | AUC of viability dose-response curve (NOMO1; HPLM + 10% dialyzed FBS) | AUC of viability dose-response curve (NOMO1; RPMI 5 mM glucose + 10% FBS) | AUC of viability dose-response curve (NOMO1; [1])
21 | CN(C)c1nc(N(C)C)nc(N(C)C)n1 | 435 | 436 | 441 | 465 | 453 | 461 | 440 | 454 | 454
22 | C[C@@]12OC(=O)[C@@]1(NC(=O)[C@@H]2CCCl)[C@@H](O)[C@H]\3CCC\C=C3 | 256 | 253 | 247 | 183 | 182 | 177 | 243 | 254 | 254
23 | C[C@@H]1CN(CC(=O)N2CC(C)(C)c3ncc(Cc4ccc(F)cc4)cc32)[C@@H](CN2CCOC[C@H]2C)CN1 | 463 | 449 | 477 | 448 | 402 | 465 | 442 | 456 | 459
24 | Nc1ccc([S+](=O)([O-])Nc2ccccn2)cc1 | 467 | 439 | 445 | 438 | 468 | 448 | 470 | 467 | 464
25 | CC(C)(C)C1=NC2=C([NH]1)C3=CC=C(F)C=C3C4=C2\C=C/NC4=O | 391 | 404 | 408 | 384 | 378 | 384 | 415 | 412 | 408
26 | CCCCOc1ccc(C(=O)Nc2ccc(F)cc2F)cc1 | 423 | 422 | 408 | 377 | 383 | 385 | 437 | 420 | 433
27 | Cn1cc(-c2ccncc2)c(-c2ccc(OCc3ccc4ccccc4n3)cc2)n1 | 449 | 433 | 440 | 469 | 445 | 465 | 454 | 451 | 463
28 | CN(C)[C@H]\1[C@@H]2[C@@H](O)[C@@H]\3C(=C)C4=C(C(=CC=C4)O)C(=O)C3=C(\O)[C@@]2(O)C(=O)\C(=C1O)C(N)=O | 465 | 468 | 472 | 452 | 463 | 466 | 449 | 462 | 474
29 | COc1cc2nc(-c3ccc(N4CCN(C)CC4)cc3)nc(NCCN3CCOCC3)c2cc1OC | 340 | 350 | 345 | 248 | 290 | 271 | 300 | 336 | 302
30 | CN(C)CCC=C1C2=C(C=CC=C2)\C=C/C3=C1C=CC=C3 | 449 | 401 | 469 | 459 | 438 | 466 | 418 | 440 | 438
31 | CNC(=O)c1c(F)cccc1Nc1nc(Nc2cc3c(cc2OC)CCN3C(=O)CN(C)C)nc2[nH]ccc12 | 446 | 463 | 454 | 269 | 253 | 272 | 384 | 459 | 454
32 | O=C(NC1CC1)c1cccc(-c2ccc3c(NC(=O)C4CC4)n[nH]c3c2)c1 | 418 | 419 | 426 | 430 | 425 | 422 | 450 | 448 | 451
33 | CCOc1ccccc1OCCNC(C)Cc1ccc(OC)c([S+](N)(=O)[O-])c1 (stereo not given) | 471 | 462 | 471 | 459 | 462 | 464 | 468 | 461 | 466
34 | CC(C)c1ccc2oc3nc(N)c(C(=O)O)cc3c(=O)c2c1 | 467 | 470 | 474 | 466 | 449 | 462 | 469 | 470 | 472
35 | CCOC(=O)c1ncn2c1CN(C)C(=O)c1cc(F)ccc1-2 | 427 | 432 | 424 | 421 | 420 | 422 | 433 | 432 | 465
36 | O=C(C1CCCCC1)N1CC(=O)N2CCc3ccccc3C2C1 (stereo not given) | 386 | 385 | 369 | 434 | 407 | 406 | 445 | 466 | 452
37 | COc1ccc2cccc(CCNC(C)=O)c2c1 | 470 | 468 | 460 | 451 | 453 | 452 | 434 | 415 | 440
38 | OC1=C(C=CC=C1)C2=CC=C(C=C2)C3=CSC4=C3C(=C(/C#N)C(=O)N4)/O | 448 | 456 | 453 | 453 | 434 | 457 | 462 | 449 | 453
39 | COC1=CC=C(C=C1)C/2=C/OC3=CC(=CC=C3C2=O)O | 451 | 461 | 456 | 445 | 458 | 430 | 422 | 451 | 437
40 | O=C(c1ccc(F)cc1)C1CCN(CCn2c(=O)[nH]c3ccccc3c2=O)CC1 | 455 | 448 | 451 | 469 | 474 | 466 | 469 | 457 | 453
